Laboratory results reported in US4207316A, “Novel 17-substituted 11 β-hydroxy steroids of the pregnane series, their manufacture, preparation and use” (Schering Aktiengesellschaft, priority 1978, dated 1980).
Where two headings read alike, the source gives them in different places.

Key:
[1] = test system: erythema of stripped skin (vasoconstriction); test: vasoconstriction test (topical efficacy), difference in degree of efficacy vs diflucortolone 21-valerate (DFV); assay type: in vivo, healthy test persons (human); conditions: 0.1 p.p.m. active agent, positive = more favorable than DFV
Procedure: The topical efficacy can be determined as follows using the vasoconstriction test.
The test was conducted on respectively eight healthy test persons of both sexes, who had not received any local corti costeroid treatment within the preceding two weeks. After the stratum corneum on the test persons' backs was removed down to the stratum lucidum (20-40 times application and tearing off of an adhesive film), respectively 0.1 g. of the preparations was applied to areas of a size of 4 cm^2 without protective dressing. To avoid the application of the identical preparation to identical skin areas, the application is done in a rotating fashion. The vasoconstriction is evaluated visually after 4 and 8 hours by the investigator in accordance with the following grades of effectiveness: 1=absolute fading; 2=minor residual erythema; 3=medium-grade erythema, reddening intensity in the central zone of stripped, untreated and undamaged skin; 4=erythema with minor fading; 5=no fading, or intensification of erythema.
The individual evaluations were averaged.
In each test series, diflucortolone 21-valerate (=6α,9α-difluoro-11β-hydroxy-16α-methyl-21-valeryloxy-1,4-pregnadiene-3,20-dione=DFV) is utilized as the reference compound.
The difference Δ of the average degrees of efficacy of DFV and of the test compound determined in the individual series of investigations is calculated in each case. Positive deviations Δ show a more favorable evaluation: negative deviations show a more unfavorable evaluation of the test compound as compared to DFV.
The tables set forth below list the observed test results obtained when treating the test persons with a preparation containing 0.1 p.p.m. of active agent.

[2] = test system: paw edema (Mycobacterium butyricum suspension); test: adjuvant edema test (systemic effectiveness); assay type: in vivo, SPF rats; conditions: for ED50: Mycobacterium
Procedure: The systemic effectiveness of the compounds can be determined with the aid of the adjuvant edema test as follows:
SPF rats weighing 130-150 g. are injected in the right hind paw, for producing a center of inflammation, with 0.1 ml. of a 0.5% Mycobacterium butyricum suspension (obtainable from the U.S. company Difco). Prior to injection, the paw volume of the rats is measured. Twenty-four hours after injection, the paw volume is measured once again to determine the extent of the edema. Thereafter, varying amounts of the test compound--dissolved in a mixture of 29% benzyl benzoate and 71% castor oil--are administered orally or subcutaneously to the rats. After another 24 hours, the paw volume is again determined.
The control animals are treated in the same way, except that they are injected with a benzyl benzoate-castor oil mixture free of test compound.
From the paw volumes determined, the amount of test compound required for attaining a 50% reduction in volume of the experimentally produced paw edema is calculated in the usual way.
The following tables indicate the thus-obtained test results, wherein in each case the compounds of this invention are compared with the conventional corticoids contained in commercially available preparations which are most analogous in structure.

[3] = rats, oral, 24 h after administration
[4] = rats, subcutaneous, 24 h after administration
[5] = sc, rats, subcutaneous, 24 h after administration, read-out: Adjuvant Edema Test ED50 s.c. (50% reduction in volume of paw edema)
[6] = rats, oral, 24 h after administration, read-out: Adjuvant Edema Test ED50 p.o. (50% reduction in volume of paw edema)

Molecule | Vasoconstriction Test Δ After 8 h. (difference of average degrees of efficacy of DFV and test compound) [1] | Adjuvant Edema Test ED50 s.c. (50% reduction in volume of paw edema) [2, 4] | ED50 [2, 5] [mg/kg] | other results
6α-Fluoro-11β,21-dihydroxy-17α-methoxymethoxy-4-pregnene-3,20-dione [No. 25] | +1.3 | – | – | Vasoconstriction Test Δ After 4 h. (difference of average degrees of efficacy of DFV and test compound) [1]: +1.0; Adjuvant Edema Test ED50 p.o. (50% reduction in volume of paw edema) [2, 3]: about 8 mg./kg. Animal
11β-hydroxy-17α-methoxymethoxy-21-propionyloxy-4-pregnene-3,20- dione [Example 19] | +0.5 | 1.9 mg./kg. Animal | – | Vasoconstriction Test Δ After 4 h. (difference of average degrees of efficacy of DFV and test compound) [1]: +0.5
C[C@]12C=CC(=O)C=C1CC[C@@H]1[C@@H]2[C@@H](O)C[C@@]2(C)[C@H]1CC[C@]2(O)C(=O)CO [compound 8] | – | – | – | ED50 ([2]; in Rattus norvegicus, po, 24 h, read-out: Adjuvant Edema Test ED50 p.o. (50% reduction in volume of paw edema)): 8.6 mg/kg; ED50 ([2]; in Rattus norvegicus, sc, 24 h, read-out: Adjuvant Edema Test ED50 s.c. (50% reduction in volume of paw edema)): 2.6 mg/kg
21-Butyryloxy-11β-hydroxy-17α-methoxymethoxy-1,4-pregnadiene-3,20-dione [No. 12] | +0.2 | about 1 mg./kg. Animal | – | Vasoconstriction Test Δ After 4 h. (difference of average degrees of efficacy of DFV and test compound) [1]: +0.5
CCCOCO[C@]1(C(=O)CO)CC[C@H]2[C@@H]3CCC4=CC(=O)CC[C@]4(C)[C@H]3[C@@H](O)C[C@@]21C [compound 4] | – | – | ~10 | –
COCO[C@]1(C(=O)CO)CC[C@H]2[C@@H]3CCC4=CC(=O)CC[C@]4(C)[C@H]3[C@@H](O)C[C@@]21C [compound 2] | – | – | 13 | ED50 [2, 6]: 67 mg/kg
11β,21-dihydroxy-17α-(1'-methoxyethoxy)-6α-methyl-1,4-pregnadiene-3,20-dione [Example 12] | – | about 3 mg./kg. Animal | – | –
21-Acetoxy-11β-hydroxy-17α-methoxymethoxy-1,4-pregnadiene-3,20-dione [No. 10] | +1.0 | 3.0 mg./kg. Animal | – | Vasoconstriction Test Δ After 4 h. (difference of average degrees of efficacy of DFV and test compound) [1]: +0.5
COCO[C@]1(C(=O)CO)CC[C@H]2[C@@H]3CCC4=CC(=O)C=C[C@]4(C)[C@H]3[C@@H](O)C[C@@]21C [compound 9] | – | – | – | ED50 [2, 6]: 9.8 mg/kg
COCO[C@]1(C(=O)COC(C)=O)CC[C@H]2[C@@H]3CCC4=CC(=O)C=C[C@]4(C)[C@H]3[C@@H](O)C[C@@]21C [compound 10] | – | – | > 3 | Adjuvant Edema Test, percentage in parentheses beside ED50 s.c. bound ([2]; rats, subcutaneous, at 3 mg./kg.): 25%
11β,21-dihydroxy-17α-methoxymethoxy-16β-methyl-4-pregnene- 3,20-dione [Example 17] | – | 2.1 mg./kg. Animal | – | –
C[C@]12CCC(=O)C=C1CC[C@@H]1[C@@H]2[C@@H](O)C[C@@]2(C)[C@H]1CC[C@]2(OC1CCCCO1)C(=O)CO (stereo partly drawn) [compound 7] | – | – | 12 | –
CCCCOCO[C@]1(C(=O)CO)CC[C@H]2[C@@H]3CCC4=CC(=O)CC[C@]4(C)[C@H]3[C@@H](O)C[C@@]21C [compound 6] | – | – | 20 | –
21-Acetoxy-9α-chloro-11β-hydroxy-17α-methoxymethoxy-4-pregnene-3,20-dione [No. 14] | – | – | – | Vasoconstriction Test Δ After 4 h. (difference of average degrees of efficacy of DFV and test compound) ([1]; listed as 26): -0.8; Vasoconstriction Test Δ After 4 h. (difference of average degrees of efficacy of DFV and test compound) ([1]; listed as 27): +0.6; Vasoconstriction Test Δ After 8 h. (difference of average degrees of efficacy of DFV and test compound) ([1]; listed as 26): -0.9; Vasoconstriction Test Δ After 8 h. (difference of average degrees of efficacy of DFV and test compound) ([1]; listed as 27): +0.6; Adjuvant Edema Test ED50 p.o. (50% reduction in volume of paw edema) [2, 3]: 22 mg./kg. Animal
21-acetoxy-17α-methoxymethoxy-4-pregnene-3,11,20-trione [Example 24] | – | – | – | Adjuvant Edema Test ED50 s.c. (50% reduction in volume of paw edema) ([2]; rats, subcutaneous, 24 h after administration, 1440 min): 3.5 mg./kg. Animal; Adjuvant Edema Test ED50 s.c. (50% reduction in volume of paw edema) ([2]; rats, subcutaneous, 24 h after administration, listed as 25, 1440 min): 4.0 mg./kg. Animal
11β,21-Dihydroxy-17α-methoxymethoxy-1,4-pregnadiene-3,20-dione [No. 9] | +0.4 | about 3 mg./kg. Animal | – | –
CCCC(=O)O[C@]1(C(=O)CO)CC[C@H]2[C@@H]3CCC4=CC(=O)CC[C@]4(C)[C@H]3[C@@H](O)C[C@@]21C [compound 1] | – | – | 13 | ED50 [2, 6]: 54 mg/kg
11β,21-Dihydroxy-17α-propoxymethoxy-4-pregnene-3,20-dione [No. 4] | +0.7 | 3.2 mg./kg. Animal | – | Vasoconstriction Test Δ After 4 h. (difference of average degrees of efficacy of DFV and test compound) [1]: +0.4
17α-Ethoxymethoxy-11β,21-dihydroxy-4-pregnene-3,20-dione [No. 3] | 0.0 | 3.0 mg./kg. Animal | – | Vasoconstriction Test Δ After 4 h. (difference of average degrees of efficacy of DFV and test compound) [1]: -0.3; Adjuvant Edema Test ED50 p.o. (50% reduction in volume of paw edema) [2, 3]: 22 mg./kg. Animal
CC(C)OCO[C@]1(C(=O)CO)CC[C@H]2[C@@H]3CCC4=CC(=O)CC[C@]4(C)[C@H]3[C@@H](O)C[C@@]21C [compound 5] | – | – | > 30 | Adjuvant Edema Test, percentage in parentheses beside ED50 s.c. bound ([2]; rats, subcutaneous, at 30 mg./kg.): 42%
CCOCO[C@]1(C(=O)CO)CC[C@H]2[C@@H]3CCC4=CC(=O)CC[C@]4(C)[C@H]3[C@@H](O)C[C@@]21C [compound 3] | – | – | 14.5 | –
21-butyryloxy-11β-hydroxy-17α-methoxymethoxy-4-pregnene-3,20-dione [Example 20] | – | 2.0 mg./kg. Animal | – | –
21-acetoxy-11β-hydroxy-17α-methoxymethoxy-4-pregnene-3,20-dione [Example 18] | – | 0.13 mg./kg. Animal | – | –
11β-hydroxy-17α-methoxymethoxy-21-trimethylacetoxy-4-pregnene-3,20-dione [Example 21] | – | 3.0 mg./kg. Animal | – | –
17α-Butoxymethoxy-11β,21-dihydroxy-4-pregnene-3,20-dione [No. 6] | +1.0 | about 1 mg./kg. Animal | – | Vasoconstriction Test Δ After 4 h. (difference of average degrees of efficacy of DFV and test compound) [1]: +0.9
